Laboratory results published in publication doi:10.1101/2023.07.20.549922v1 (biorxiv, 2023).

Key:
[1] = target: T1, AmGSTD1 (Apis mellifera, UniProt A0A8U0Y9D4); assay: ANS displacement fluorescence, Ki from IC50; type: binding
T1 sequence (A0A8U0Y9D4 1-240): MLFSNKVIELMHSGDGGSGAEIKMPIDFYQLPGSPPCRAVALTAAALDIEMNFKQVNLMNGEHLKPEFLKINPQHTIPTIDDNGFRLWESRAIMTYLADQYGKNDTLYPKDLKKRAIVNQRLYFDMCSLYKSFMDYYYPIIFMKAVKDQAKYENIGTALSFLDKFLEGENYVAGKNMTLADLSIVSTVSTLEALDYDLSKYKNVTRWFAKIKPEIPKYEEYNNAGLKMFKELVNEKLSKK

[2] = target: T1, AmGSTD1; assay: ANS displacement fluorescence; type: binding
[3] = target: T1, AmGSTD1; assay: absorbance initial rates, Michaelis-Menten; conditions: 4 mM GSH; 100 mM KPi pH 6.5; 30 °C
[4] = target: T1, AmGSTD1; assay: fluorescence saturation binding
[5] = substrate: CCCCCC(O)/C=C/C=O; assay: purified protein; conditions: 0.5 mM GSH, 100 mM KPi pH 6.5, 30 °C
[6] = substrate: S=C=NCCc1ccccc1; assay: purified protein; conditions: 4 mM GSH, 100 mM KPi pH 6.5, 30 °C
[7] = substrate: CC(=O)Oc1ccc([N+](=O)[O-])cc1; assay: purified protein; conditions: 4 mM GSH, 100 mM KPi pH 6.5, 30 °C

**Q.** For `O=C(O)COc1nc(Cl)c(Cl)cc1Cl` [triclopyr], which Ki [1] is on record?
**A.** 76.1 µM

**Q.** What about the IC50 [2] of the same molecule?
**A.** 1860 ± 190 µM

**Q.** With `O=Cc1cccc(Oc2ccccc2)c1` [3-phenoxybenzaldehyde] as the molecule, how does the Ki [1] read?
**A.** 302 µM

**Q.** For `Oc1nc(Cl)c(Cl)cc1Cl` [TCP], which Ki [1] is on record?
**A.** 25 µM

**Q.** And the IC50 [2]?
**A.** 613 ± 27 µM

**Q.** `CCCCC(C#N)(Cn1cncn1)c1ccc(Cl)cc1` (stereo not shown) [myclobutanil] was tested. Which Ki [1] did it give?
**A.** 148 µM

**Q.** `O=[N+]([O-])c1ccc(Cl)c([N+](=O)[O-])c1` [CDNB] was tested. Which Ki [1] did it give?
**A.** 49.6 µM

**Q.** What about the IC50 [2] of the same molecule?
**A.** 1220 ± 55 µM

**Q.** What about the Km [3] of the same molecule?
**A.** 525 ± 70 µM

**Q.** How did the Ki [1] turn out when `O=[N+]([O-])NC1=NCCN1Cc1ccc(Cl)nc1` [imidacloprid] was run?
**A.** 130 µM

**Q.** For `O=S(=O)(O)c1cccc2cccc(Nc3ccccc3)c12` [ANS], which Kd [4] is on record?
**A.** 2.09 ± 0.102 µM

**Q.** How did the Ki [1] turn out when `C=C(CC)C(=O)c1ccc(OCC(=O)O)c(Cl)c1Cl` [ethacrynic acid] was run?
**A.** 41.5 µM

**Q.** And the IC50 [2]?
**A.** 1020 ± 40 µM

**Q.** With `CCCN=C=S` [PITC] as the molecule, how does the Km [3] read?
**A.** 1100 ± 140 µM

**Q.** Which Ki [1] does the source give for `O=C(O)COc1ccc(Cl)cc1Cl` [2,4-D] here?
**A.** 41.4 µM

**Q.** And the IC50 [2]?
**A.** 1010 ± 56 µM

B1: AmGSTD1 (Apis mellifera) (protein)
chain: MLFSNKVIELMHSGDGGSGAEIKMPIDFYQLPGSPPCRAVALTAAALDIEMNFKQVNLMNGEHLKPEFLKINPQHTIPTIDDNGFRLWESRAIMTYLADQYGKNDTLYPKDLKKRAIVNQRLYFDMCSLYKSFMDYYYPIIFMKAVKDQAKYENIGTALSFLDKFLEGENYVAGKNMTLADLSIVSTVSTLEALDYDLSKYKNVTRWFAKIKPEIPKYEEYNNAGLKMFKELVNEKLSKK
**Q.** What does the source list for B1?
**A.** Km [5]: 106 ± 34 µM; kcat [5]: 0.345 ± 0.0433 s⁻¹; Km [6]: 819 ± 100 µM; kcat [6]: 3.93 ± 0.2 s⁻¹; Km [7]: 1160 ± 90 µM; kcat [7]: 6.7 ± 0.233 s⁻¹
